Assay results as given in patent publication US20150182675A1, “Ascorbic Acid-Eluting Implantable Medical Devices, Systems, and Related Methods” (South Dakota Board of Regents, priority 2012, published 2015).

How the values were obtained:
Format in all cases: cell-based
[1] = test system: endothelial cells; test: FDA staining and fluorescence microscopy of endothelial cell cultures (Example One); details: for endothelial cell adhesion: 100 μg added, 15,000 cells per well, day 1; for spreading of endothelial cells: day 5
Procedure: In Example 1, […] of L-ascorbic acid, 100 μg of sirolimus, and 100 μg paclitaxel were added to separate endothelial cell cultures (15,000 cells per well). A control cell culture was also provided in which no agent was added. The endothelial cell adhesion in the culture well was investigated by staining the live cells with fluorescein diacetate (FDA). The FDA-stained live cells were then imaged using fluorescence microscopy on day one, day 3, day five, and day seven of culture. After five days, a determination of the spreading of endothelial cells was made. After seven days, a determination of growth (viability and proliferation) of endothelial cells was made.

[2] = test system: endothelial cells; test: Resazurin fluorometric assay (Alamar Blue) of endothelial cell cultures (Example Two); details: RFU, FIG. 5
Procedure: In order to provide a quantitative characterization of the Example One results, a resazurin fluorometric assay (Alamar Blue) was used. A solution of Alamar Blue was added to the endothelial cell cultures which were already treated with ascorbic acid, sirolimus, or paclitaxel. A control lacking any therapeutic agent was included. After respective time points (1, 3, 5, and 7 days), the fluorescence of the solution was measured using a microplate reader. The collected data is provided as relative fluorescence units (RFU) vs. time for all the three groups (ascorbic acid, sirolimus, and paclitaxel) of samples.

[3] = test system: endothelial cells; test: Phase contrast microscopy of endothelial cell morphology (Example Six); details: 100 μg added, day 7, phase contrast
Procedure: In Example 6, 100 μg of L-ascorbic acid, 100 μg of sirolimus, and 100 μg paclitaxel were added to separate endothelial cell cultures. A control cell culture was also provided in which no agent was added. The effects of L-AA, SIR, and PAT on the growth of endothelial cells was investigated by taking phase contrast images of cells after 7 days using an Axiovert 200 M inverted microscopy (Carl Zeiss) in the bright field imaging mode and examining the cell morphology.

[4] = test system: endothelial cells; test: Resazurin fluorometric assay of endothelial cells, different doses of ascorbic acid (Example Seven)
Procedure: (§1) In Example 7, a quantitative resazurin fluorometric assay was used. A solution of alamarBlue® from a kit purchased from Biotium Inc. (in Hayward, Calif.) was added to the endothelial cell cultures which were already treated with different doses of ascorbic acid. More specifically, the different doses of ascorbic acid included 1 μg/mL, 100 μg/mL, 300 μg/mL, 500 μg/mL, and 1000 μg/mL. A control lacking any ascorbic acid was also included. After respective time points (1, 3, 5, and 7 days), the fluorescence of the solution was measured using a microplate reader. The collected data is provided as relative fluorescence units (RFU) vs. time for all the six groups (control, 1 μg/mL, 100 μg/mL, 300 μg/mL, 500 μg/mL, and 1000 μg/mL) of samples.

[5] = test system: smooth muscle cells; test: Resazurin fluorometric assay of smooth muscle cell cultures (Example Eight); details: for number of smooth muscle cells in comparison to the control: day 1; for smooth muscle cell growth vs control: day 3
Procedure: In Example 8, a quantitative resazurin fluorometric assay was used. A solution of alamarBlue® from a kit purchased from Biotium Inc. (in Hayward, Calif.) was added to the smooth muscle cell cultures which were already treated with ascorbic acid, sirolimus, or paclitaxel. A control lacking any therapeutic agent was also included. After respective time points (1, 3, 5, and 7 days), the fluorescence of the solution was measured using a microplate reader. The collected data is provided as relative fluorescence units (RFU) vs. time for all the three groups (ascorbic acid, sirolimus, and paclitaxel) of samples.

[6] = test system: smooth muscle cells; test: FDA staining and fluorescence microscopy of smooth muscle cells (Example Nine); details: for smooth muscle cell growth from one time point to the other: FDA staining, days 1 to 7; for confluence of smooth muscle cells: after 7 days
Text: (§2) Example 9 provides a qualitative characterization of the Example Eight results using flurorescence microscopy. More specifically, the growth of smooth muscle cells in the presence of three different treatments (ascorbic acid, paclitaxel, and sirolimus) was investigated by staining the live cells with fluorescein diacetate (FDA). The FDA-stained live cells were then imaged using flurorescence microscopy on day 1, day 3, day 5, and day 7 of culture. On each day, a determination of growth (viability and proliferation) of smooth muscle cells was made.

[7] = test system: smooth muscle cells; test: Phase contrast microscopy of smooth muscle cell morphology (Example Ten); details: day 7, phase contrast
Text: Example 10 provides a further qualitative characterization of the Example Eight results using phase contrast microscopy. That is, the effects of L-AA, SIR, and PAT on the growth of smooth muscle cells was investigated by taking phase contrast images of cells after 7 days using an Axiovert 200 M inverted microscopy (Carl Zeiss) in the bright field imaging mode and examining the cell morphology.

[8] = test system: smooth muscle cells; test: Resazurin fluorometric assay of smooth muscle cells, different doses of ascorbic acid (Example Eleven)
Procedure: as §1, with “11,” for “7,”, “smooth muscle” for “the endothelial”

[9] = test system: smooth muscle cells; test: FDA staining and fluorescence microscopy of smooth muscle cells, different doses of ascorbic acid (Example Twelve); details: for confluence of smooth muscle cells: after 7 days
Text: as §2, with “12” for “9”, “Eleven” for “Eight”, “fluorescence” for “flurorescence”, “five” for “three”, “doses of ascorbic acid” for “treatments (ascorbic acid, paclitaxel, and sirolimus)”

[10] = days 1 to 7, doses 1 to 1000 μg

## O=C1O[C@H]([C@@H](O)CO)C(O)=C1O [ascorbic acid, L-ascorbic acid]
[1]
  endothelial cell adhesion: excellent
[1]; 100 μg added
  spreading of endothelial cells: excellent
[1]; 100 μg added, day 7
  growth (viability and proliferation) of endothelial cells: excellent
  growth of endothelial cells in comparison to the control: more growth in comparison to the control
[2]
  growth of endothelial cells relative to cells treated with paclitaxel: 10 fold
  growth of endothelial cells relative to cells treated with sirolimus: 19 fold
  growth of endothelial cells relative to control (no drug): 1.6 fold
[3]
  endothelial cell morphology: spreading morphology with characteristic polygonal shape
[4]; day 1, all doses (1 to 1000 μg/mL)
  number of endothelial cells vs control: no significant differences
[4]; day 3, 100 μg dose
  number of endothelial cells vs control and other doses: significantly greater
[4]; day 5, 100 μg dose
  number of endothelial cells vs control and other doses: significantly greater number of cells
[4]; day 5, 300 μg dose
  number of endothelial cells vs control and other doses: significantly greater number of cells
[4]; day 5, 500 μg dose
  number of endothelial cells vs control and other doses: significantly greater number of cells
[4]; day 7, 300 μg/mL dose
  number of endothelial cells among the groups: maximum number of cells
[4]; day 7, 100 dose
  number of endothelial cells among the groups: maximum number of cells
[4]; [10]
  order of viability and proliferation of endothelial cells for the different doses (increasing): 1000 μg<1 μg=control=500 μg<<300 μg=100 μg
[5]
  number of smooth muscle cells in comparison to the control: significantly lesser number of cells
  smooth muscle cell growth vs control: significantly inhibited the cell growth
[5]; days 1 to 7
  effect on growth of SMCs (overall): significantly inhibited growth of SMCs
  order of SMC viability and proliferation (decreasing): Control>>ascorbic acid>sirolimus=paclitaxel
[6]
  smooth muscle cell growth from one time point to the other: significantly inhibited
  confluence of smooth muscle cells: 50-60%
[7]
  smooth muscle cell morphology and spreading: spindle-shaped, but they were less spreading when compared to the control
[8]; day 1, doses 100 to 1000 μg
  number of smooth muscle cells vs control and 1 μg dose: significantly fewer cells
[8]; day 3 (similar days 5 and 7), 500 and 1000 μg doses
  number of smooth muscle cells vs 100 and 300 μg doses: fewer cells in comparison to the 100 and 300 μg doses
[8]; [10]
  order of viability and proliferation of smooth muscle cells for the different doses (decreasing): control=1 μg>>100 μg=300 μg>500 μg=1000 μg
[9]; 1 μg dose
  inhibitory effect on smooth muscle cells: no inhibitory effect
  confluence of smooth muscle cells: > 90%
[9]; 1000 μg dose
  inhibitory effect on smooth muscle cells: maximum inhibitory effect
  confluence of smooth muscle cells: 30-40%
[9]; 100 μg dose
  confluence of smooth muscle cells: 50-60%
[9]; 300 μg dose
  confluence of smooth muscle cells: 50-60%
[9]; 500 μg dose
  confluence of smooth muscle cells: 30-40%
[9]; doses ranging from 100 to 1000 μg, days 1 to 7
  smooth muscle cell growth: significantly inhibited

## CC(=O)O[C@H]1C(=O)[C@@]2(C)[C@H]([C@H](OC(=O)c3ccccc3)[C@]3(O)C[C@H](OC(=O)[C@H](O)[C@@H](NC(=O)c4ccccc4)c4ccccc4)C(C)=C1C3(C)C)[C@]1(OC(C)=O)CO[C@@H]1C[C@@H]2O [paclitaxel]
[1]
  endothelial cell adhesion: poor
[1]; 100 μg added
  spreading of endothelial cells: poor
[1]; 100 μg added, day 7
  growth (viability and proliferation) of endothelial cells: poor
[3]
  endothelial cell morphology: uncharacteristic oval or round shape with no spreading morphology
[5]
  number of smooth muscle cells in comparison to the control: significantly lesser number of cells
  smooth muscle cell growth vs control: significantly inhibited the cell growth
[5]; day 5 (similar on day 7)
  number of smooth muscle cells vs ascorbic acid treatment: lesser numbers of cells than that of the ascorbic acid treatment
[5]; days 1 to 7
  order of SMC viability and proliferation (decreasing): Control>>ascorbic acid>sirolimus=paclitaxel
[6]
  smooth muscle cell growth from one time point to the other: significantly inhibited
  confluence of smooth muscle cells: about 20%
[7]
  smooth muscle cell morphology and spreading: not spreading and only very few cells were spindle-shaped

## CO[C@H]1C[C@@H]2CC[C@@H](C)[C@@](O)(O2)C(=O)C(=O)N2CCCC[C@H]2C(=O)O[C@H]([C@H](C)C[C@@H]2CC[C@@H](O)[C@H](OC)C2)CC(=O)[C@H](C)/C=C(\C)[C@@H](O)[C@@H](OC)C(=O)[C@H](C)C[C@H](C)/C=C/C=C/C=C/1C [sirolimus]
[6]
  confluence of smooth muscle cells: about 20%
